Data on four compounds can be found in patent US11318107B2, “Pharmaceutical active-containing film delivery device for oral transmucosal administration” (Avior, Inc., priority 2019, dated 2022).

The nature of series [1]: Solubility of nalmefene HCl in polar solvents at 100 mg/mL. The class given is physicochemical. To be noted: test concentration 100 mg/mL. The source says:
Ethanol, propylene glycol, glycerol, methanol, and water were considered.

The conditions of series [2]: cited from earlier work.
Series [3] can be described thus: Solubility evaluation of nalmefene in solvent systems. The class given is physicochemical. The protocol:
In addition, the solubility of nalmefene in varying concentrations was evaluated using different combinations of solvent systems. The solvent systems included combinations of polar solvents with different surface active agents. The solvent systems provided different volatilization rates. […] Exemplary surface active agents included: Tween 20, Tween 80, Gelucire® 34/44, Kolliphor® HS 15, Solutol® NF, Labrafil® M2125 CS and Labrafil® M1944 CS.

A further series in a line: in vivo. As to conditions: both, beagle, dog, plasma, iv, 4 mg/animal.
The nature of series [4]: Pharmacokinetic study of nalmefene buccal films and nalmefene IV in beagle dogs (plasma, LC/MS, noncompartmental analysis). As to conditions: majority of concentrations, after buccal film or IV nalmefene, lower limit of quantitation 0.1 ng/mL.

Structures can show the parent of a compound that is named as a salt.

As for `C=C1CC[C@@]2(O)[C@H]3Cc4ccc(O)c5c4[C@@]2(CCN3CC2CC2)[C@H]1O5` [Nalmefene HCl Monohydrate], the “Solubility of Nalmefene HCl Monohydrate” value is given as “Partially” in series [1] (Ethanol NF); “Partially” in series [1] (Glycerol USP); “Highly” in series [1] (Methanol); “Partially” in series [1] (Propylene glycol USP); “Moderately high” in series [1] (Water NF).

Broadly, the log P is a log measure of how a compound divides between an organic and an aqueous phase. As for `C=C1CC[C@@]2(O)[C@H]3Cc4ccc(O)c5c4[C@@]2(CCN3CC2CC2)[C@H]1O5` [Nalmefene hydrochloride], the pKa1 in series [2] (amine) is given as 8.38. The lipophilicity (log P) in series [2] is recorded as 2.66. In addition, the Solubility in water result in series [2] (freely soluble) was “up to 130 mg/mL”. In addition, the pKa2 in series [2] (phenol) is given as 10.00. In series [2] (slightly soluble), the Solubility in chloroform result is “up to 0.13 mg/mL”.

As a reminder, the Vd is the apparent volume that relates the amount in the body to the concentration in plasma or blood. Usually clearance stands for a measure of how efficiently the substance is removed, as volume per time. A low value points to inefficient removal. One may read the half-life as how long it takes for the measured level to halve. As for `C=C1CC[C@@]2(O)[C@H]3Cc4ccc(O)c5c4[C@@]2(CCN3CC2CC2)[C@H]1O5` [nalmefene, 6-methylene-6-deoxy-N-cyclopropylmethyl-14 hydroxydihydronormorphine], the Solubility observation entry is “Completely Soluble,” in series [3] (Ethanol:Water 75:25, nalmefene 200 mg/mL); “Completely Soluble,” in series [3] (Ethanol:Water:Gelucire 34/14 75:20:5, nalmefene 200 mg/mL); “Completely Soluble,” in series [3] (Ethanol:Water:Glycerine 70:20:10, nalmefene 300 mg/mL); “Completely Soluble,” in series [3] (Ethanol:Water:Labrafil M1944 CS 80:17.5:2.5, nalmefene 200 mg/mL); “Completely Soluble,” in series [3] (Ethanol:Water:Labrafil M2125 OS 80:17.5:2.5, nalmefene 200 mg/mL); “Completely Soluble,” in series [3] (Ethanol:Water:Propylene Glycol 68:22:10, nalmefene 350 mg/mL). In addition, the Solubility observation result is reported as “Completely Soluble,” in series [3] (Ethanol:Water:Propylene Glycol 82.5:12.5:5, nalmefene 200 mg/mL); “Completely Soluble,” in series [3] (Ethanol:Water:Propylene Glycol:Tween 80 70:25:4:1, nalmefene 350 mg/mL); “Completely Soluble,” in series [3] (Ethanol:Water:Tween 20 75:24.5:0.5, nalmefene 250 mg/mL). In “in vivo”, this compound came in with a volume of distribution (Vd) of 2.77 L/kg. Further, the clearance in the series “in vivo” was 46.2 mL/min/kg. In addition, the half-life in “in vivo” is 1.34 h.

`C=C1CC[C@@]2(O)[C@H]3Cc4ccc(O)c5c4[C@@]2(CCN3)[C@H]1O5` [nornalmefene]: the “Nornalmefene (metabolite) plasma concentrations” value in series [4] is listed as “below the limit of quantitation”.
